Results: paper PMC7714403 (JCI Insight, 2020)

What was measured:
Experiment in all cases: KiNativ, OCI cells live cell
AMPKa1, AMPKa2 = assay type: cell-based, human
FER = FER (Homo sapiens, UniProt P16591); assay type: cell-based; conditions: 2 h, labeling site Activation Loop, peptide […]
IKKe, TBK1 = assay type: cell-based, human; conditions: labeling site Lys2, peptide DIKPGNIMR
JAK1 domain1 = biological target: T1, JAK1 domain1 (Homo sapiens, UniProt P23458); assay type: cell-based; conditions: labeling site Activation Loop, peptide QLASALSYLEDKDLVHGNVCTKNLLLAR
T1 construct: JAK1 domain1

LKB1 = LKB1 (Homo sapiens, UniProt Q15831); assay type: cell-based; conditions: 2 h, labeling site Lys2, peptide […]
MAP2K4 = biological target: T2, MAP2K4 (Homo sapiens, UniProt P45985); assay type: cell-based; conditions: 2 h
T2 sequence (P45985 1-399): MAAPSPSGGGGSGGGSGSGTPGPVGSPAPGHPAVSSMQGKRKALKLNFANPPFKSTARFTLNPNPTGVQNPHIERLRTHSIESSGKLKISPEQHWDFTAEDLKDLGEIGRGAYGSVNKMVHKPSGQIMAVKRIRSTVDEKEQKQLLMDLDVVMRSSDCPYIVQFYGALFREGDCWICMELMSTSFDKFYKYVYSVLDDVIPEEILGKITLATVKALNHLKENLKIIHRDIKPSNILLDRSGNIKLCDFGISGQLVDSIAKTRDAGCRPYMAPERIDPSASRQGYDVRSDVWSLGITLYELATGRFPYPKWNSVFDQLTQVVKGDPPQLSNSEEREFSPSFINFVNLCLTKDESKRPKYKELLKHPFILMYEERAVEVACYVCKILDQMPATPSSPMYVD

MAPKAPK2, MAPKAPK3 = assay type: cell-based, human; conditions: labeling site Lys2, peptide DVKPENLLYTSK
MASTL = biological target: T3, MASTL (Homo sapiens, UniProt Q96GX5); assay type: cell-based
T3 sequence (Q96GX5 1-879): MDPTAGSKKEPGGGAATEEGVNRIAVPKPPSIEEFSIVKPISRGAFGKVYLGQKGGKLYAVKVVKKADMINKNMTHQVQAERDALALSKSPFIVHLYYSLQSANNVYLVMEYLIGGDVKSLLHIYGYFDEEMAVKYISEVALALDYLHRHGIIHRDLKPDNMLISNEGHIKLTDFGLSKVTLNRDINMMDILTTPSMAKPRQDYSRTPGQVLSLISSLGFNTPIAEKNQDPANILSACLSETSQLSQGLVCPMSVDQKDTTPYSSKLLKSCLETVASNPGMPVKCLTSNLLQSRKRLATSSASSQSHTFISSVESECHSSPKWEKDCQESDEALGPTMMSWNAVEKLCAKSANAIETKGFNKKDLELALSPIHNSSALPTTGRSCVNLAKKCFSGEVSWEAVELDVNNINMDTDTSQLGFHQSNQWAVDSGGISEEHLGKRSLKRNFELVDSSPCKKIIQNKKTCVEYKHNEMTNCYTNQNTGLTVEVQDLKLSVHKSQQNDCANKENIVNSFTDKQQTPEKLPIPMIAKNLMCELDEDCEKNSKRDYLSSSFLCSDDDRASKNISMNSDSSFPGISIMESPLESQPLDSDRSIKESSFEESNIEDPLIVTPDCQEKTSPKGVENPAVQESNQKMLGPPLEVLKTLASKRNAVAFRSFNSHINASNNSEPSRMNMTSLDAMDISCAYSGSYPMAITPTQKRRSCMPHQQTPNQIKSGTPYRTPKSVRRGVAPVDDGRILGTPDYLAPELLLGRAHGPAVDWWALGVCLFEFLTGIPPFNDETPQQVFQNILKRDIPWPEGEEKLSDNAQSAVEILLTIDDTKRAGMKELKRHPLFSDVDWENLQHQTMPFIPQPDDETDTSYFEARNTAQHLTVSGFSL

MST2 = MST2 (Homo sapiens, UniProt Q13188); assay type: cell-based; conditions: 2 h, labeling site Lys1, peptide […]
SMG1 = SMG1 (Homo sapiens, UniProt Q96Q15); assay type: cell-based; conditions: labeling site ATP
SNRK = SNRK (Homo sapiens, UniProt Q9NRH2); assay type: cell-based; conditions: 2 h, labeling site Lys1, peptide […]
TAK1 = TAK1 (Homo sapiens, UniProt O43318); assay type: cell-based; conditions: 2 h, labeling site Lys2, peptide […]
TBK1 = TBK1 (Homo sapiens, UniProt Q9UHD2); assay type: cell-based; conditions: 2 h, labeling site Lys1, peptide […]
TEC = TEC (Homo sapiens, UniProt P42680); assay type: cell-based; conditions: 2 h, labeling site Activation Loop, peptide […]
Wnk1, Wnk2 = assay type: cell-based, human; conditions: labeling site ATP Loop, peptide GSFKTVYK

Sequence of SMG1 (Q96Q15 whole entry): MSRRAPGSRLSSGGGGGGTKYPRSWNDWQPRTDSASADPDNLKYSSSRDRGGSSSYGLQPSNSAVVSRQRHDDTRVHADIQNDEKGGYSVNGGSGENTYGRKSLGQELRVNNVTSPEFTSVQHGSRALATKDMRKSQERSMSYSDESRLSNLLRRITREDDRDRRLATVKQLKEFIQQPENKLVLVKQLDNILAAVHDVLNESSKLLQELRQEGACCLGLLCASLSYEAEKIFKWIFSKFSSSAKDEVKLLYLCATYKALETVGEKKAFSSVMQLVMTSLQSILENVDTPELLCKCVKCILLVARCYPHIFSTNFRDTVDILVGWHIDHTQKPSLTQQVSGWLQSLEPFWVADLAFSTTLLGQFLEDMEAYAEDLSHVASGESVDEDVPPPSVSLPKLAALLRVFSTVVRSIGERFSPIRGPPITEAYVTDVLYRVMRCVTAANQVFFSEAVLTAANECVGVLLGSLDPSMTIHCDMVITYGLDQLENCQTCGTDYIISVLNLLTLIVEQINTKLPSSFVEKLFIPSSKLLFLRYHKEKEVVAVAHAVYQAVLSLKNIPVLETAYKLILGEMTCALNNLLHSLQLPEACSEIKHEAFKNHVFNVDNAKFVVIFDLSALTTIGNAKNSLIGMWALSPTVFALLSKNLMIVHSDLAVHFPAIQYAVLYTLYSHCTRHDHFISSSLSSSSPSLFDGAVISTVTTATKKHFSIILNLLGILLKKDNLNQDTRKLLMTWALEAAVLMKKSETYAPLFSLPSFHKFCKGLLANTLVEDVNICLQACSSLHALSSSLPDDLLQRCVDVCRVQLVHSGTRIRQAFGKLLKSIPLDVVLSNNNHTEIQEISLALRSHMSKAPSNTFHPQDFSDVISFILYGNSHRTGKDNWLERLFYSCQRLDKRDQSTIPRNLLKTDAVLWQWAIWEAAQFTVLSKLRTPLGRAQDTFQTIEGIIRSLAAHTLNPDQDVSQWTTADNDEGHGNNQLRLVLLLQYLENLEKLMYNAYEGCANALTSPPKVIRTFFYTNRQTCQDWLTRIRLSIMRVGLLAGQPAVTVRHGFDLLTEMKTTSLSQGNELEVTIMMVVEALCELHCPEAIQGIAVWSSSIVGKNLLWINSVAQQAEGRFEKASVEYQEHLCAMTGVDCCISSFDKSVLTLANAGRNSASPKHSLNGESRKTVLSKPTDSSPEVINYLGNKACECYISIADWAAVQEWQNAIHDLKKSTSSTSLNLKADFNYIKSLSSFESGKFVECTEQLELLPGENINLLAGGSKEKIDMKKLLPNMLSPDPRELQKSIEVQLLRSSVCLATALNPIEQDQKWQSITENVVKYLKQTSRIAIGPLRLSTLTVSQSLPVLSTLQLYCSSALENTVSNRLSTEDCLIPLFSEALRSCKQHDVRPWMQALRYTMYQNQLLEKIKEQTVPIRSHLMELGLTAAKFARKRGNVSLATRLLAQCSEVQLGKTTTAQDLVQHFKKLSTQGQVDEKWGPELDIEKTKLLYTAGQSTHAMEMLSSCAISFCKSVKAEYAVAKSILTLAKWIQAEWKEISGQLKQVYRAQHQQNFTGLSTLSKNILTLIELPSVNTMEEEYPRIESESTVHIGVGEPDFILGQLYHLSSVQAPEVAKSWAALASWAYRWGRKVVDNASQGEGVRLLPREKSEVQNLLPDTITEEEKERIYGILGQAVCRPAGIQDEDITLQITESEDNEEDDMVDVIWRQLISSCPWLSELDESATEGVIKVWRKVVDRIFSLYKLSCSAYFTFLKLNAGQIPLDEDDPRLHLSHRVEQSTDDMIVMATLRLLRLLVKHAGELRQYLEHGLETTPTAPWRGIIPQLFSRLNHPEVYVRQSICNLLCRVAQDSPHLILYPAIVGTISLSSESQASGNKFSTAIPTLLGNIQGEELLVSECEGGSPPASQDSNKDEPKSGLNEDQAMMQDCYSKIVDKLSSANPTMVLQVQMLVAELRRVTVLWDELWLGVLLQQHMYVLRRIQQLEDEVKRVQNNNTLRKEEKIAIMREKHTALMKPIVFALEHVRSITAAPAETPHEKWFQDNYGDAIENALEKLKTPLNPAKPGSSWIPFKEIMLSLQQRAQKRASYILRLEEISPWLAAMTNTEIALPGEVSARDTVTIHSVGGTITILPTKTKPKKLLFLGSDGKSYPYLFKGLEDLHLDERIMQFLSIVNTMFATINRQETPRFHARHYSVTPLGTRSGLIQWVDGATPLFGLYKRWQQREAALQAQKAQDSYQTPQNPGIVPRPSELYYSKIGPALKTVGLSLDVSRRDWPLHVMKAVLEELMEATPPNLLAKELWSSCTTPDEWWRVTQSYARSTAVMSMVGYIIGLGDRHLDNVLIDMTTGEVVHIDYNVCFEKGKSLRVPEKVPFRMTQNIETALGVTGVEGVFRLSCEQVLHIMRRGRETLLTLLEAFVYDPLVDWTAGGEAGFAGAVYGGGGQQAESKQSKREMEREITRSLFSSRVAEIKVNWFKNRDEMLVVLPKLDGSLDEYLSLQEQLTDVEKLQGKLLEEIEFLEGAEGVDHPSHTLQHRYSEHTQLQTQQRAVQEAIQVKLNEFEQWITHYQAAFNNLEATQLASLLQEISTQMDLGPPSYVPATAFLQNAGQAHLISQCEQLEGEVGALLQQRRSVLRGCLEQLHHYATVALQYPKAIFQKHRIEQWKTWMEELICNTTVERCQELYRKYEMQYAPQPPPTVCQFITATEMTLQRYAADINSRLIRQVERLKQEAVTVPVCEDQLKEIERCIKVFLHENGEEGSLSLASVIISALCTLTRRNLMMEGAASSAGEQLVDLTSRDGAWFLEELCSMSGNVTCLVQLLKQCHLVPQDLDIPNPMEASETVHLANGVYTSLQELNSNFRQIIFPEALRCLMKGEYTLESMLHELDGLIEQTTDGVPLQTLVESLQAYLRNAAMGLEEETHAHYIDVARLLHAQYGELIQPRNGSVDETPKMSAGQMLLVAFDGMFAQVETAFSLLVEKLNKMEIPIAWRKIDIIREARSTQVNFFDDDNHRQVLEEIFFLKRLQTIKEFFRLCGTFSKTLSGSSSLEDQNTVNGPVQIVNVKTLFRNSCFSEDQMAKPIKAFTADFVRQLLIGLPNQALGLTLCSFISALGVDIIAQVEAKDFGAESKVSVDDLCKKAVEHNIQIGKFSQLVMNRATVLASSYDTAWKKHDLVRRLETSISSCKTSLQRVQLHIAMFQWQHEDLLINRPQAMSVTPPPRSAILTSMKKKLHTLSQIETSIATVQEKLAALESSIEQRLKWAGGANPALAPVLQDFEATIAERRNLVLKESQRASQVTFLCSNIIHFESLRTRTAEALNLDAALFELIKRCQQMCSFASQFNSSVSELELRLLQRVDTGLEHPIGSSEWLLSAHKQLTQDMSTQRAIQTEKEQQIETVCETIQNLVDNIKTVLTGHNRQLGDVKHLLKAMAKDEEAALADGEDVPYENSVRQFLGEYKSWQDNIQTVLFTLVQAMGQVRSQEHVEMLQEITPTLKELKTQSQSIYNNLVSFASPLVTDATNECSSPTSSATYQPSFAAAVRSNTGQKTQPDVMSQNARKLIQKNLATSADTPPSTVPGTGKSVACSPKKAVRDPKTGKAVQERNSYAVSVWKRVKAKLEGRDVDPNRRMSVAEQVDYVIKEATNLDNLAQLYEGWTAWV
Sequence of SNRK (Q9NRH2 whole entry): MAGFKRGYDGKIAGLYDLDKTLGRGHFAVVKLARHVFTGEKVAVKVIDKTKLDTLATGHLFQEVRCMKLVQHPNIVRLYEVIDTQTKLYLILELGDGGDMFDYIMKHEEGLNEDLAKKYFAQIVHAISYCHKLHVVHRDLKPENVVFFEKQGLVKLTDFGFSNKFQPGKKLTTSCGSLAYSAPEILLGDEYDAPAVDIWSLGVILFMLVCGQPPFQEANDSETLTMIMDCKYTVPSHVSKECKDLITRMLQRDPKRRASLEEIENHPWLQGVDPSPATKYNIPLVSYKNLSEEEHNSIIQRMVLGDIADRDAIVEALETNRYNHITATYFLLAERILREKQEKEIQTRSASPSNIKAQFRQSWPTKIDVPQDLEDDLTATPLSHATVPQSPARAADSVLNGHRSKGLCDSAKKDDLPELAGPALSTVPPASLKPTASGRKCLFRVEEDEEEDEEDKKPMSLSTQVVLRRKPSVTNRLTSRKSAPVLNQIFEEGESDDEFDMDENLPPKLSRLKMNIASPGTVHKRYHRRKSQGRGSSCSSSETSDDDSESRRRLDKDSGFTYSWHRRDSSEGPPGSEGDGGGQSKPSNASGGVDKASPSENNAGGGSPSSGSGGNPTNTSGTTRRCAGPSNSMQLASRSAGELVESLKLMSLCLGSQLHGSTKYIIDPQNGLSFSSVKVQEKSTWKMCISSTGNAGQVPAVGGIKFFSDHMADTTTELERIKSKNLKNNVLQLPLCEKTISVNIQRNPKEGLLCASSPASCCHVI
Sequence of TAK1 (O43318 whole entry): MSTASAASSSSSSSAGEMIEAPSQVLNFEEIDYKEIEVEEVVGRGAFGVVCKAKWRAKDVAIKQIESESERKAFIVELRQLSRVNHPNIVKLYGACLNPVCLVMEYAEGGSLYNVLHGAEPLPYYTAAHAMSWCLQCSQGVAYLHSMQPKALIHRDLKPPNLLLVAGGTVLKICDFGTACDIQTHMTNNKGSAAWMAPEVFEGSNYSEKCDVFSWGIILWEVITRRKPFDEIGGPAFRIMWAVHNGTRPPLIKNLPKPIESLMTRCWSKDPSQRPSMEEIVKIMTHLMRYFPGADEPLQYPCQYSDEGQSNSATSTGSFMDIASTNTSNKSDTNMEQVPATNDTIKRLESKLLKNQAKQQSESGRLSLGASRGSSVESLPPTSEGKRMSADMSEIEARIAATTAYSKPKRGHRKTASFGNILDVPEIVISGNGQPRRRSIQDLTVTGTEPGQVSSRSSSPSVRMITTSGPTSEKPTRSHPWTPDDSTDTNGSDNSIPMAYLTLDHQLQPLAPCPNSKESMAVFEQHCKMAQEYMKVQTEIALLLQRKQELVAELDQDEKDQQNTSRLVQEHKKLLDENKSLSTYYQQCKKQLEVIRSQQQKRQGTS

CN1CCN(Cc2ccc(Nc3ncc(Cl)c(Nc4ccccc4S(=O)(=O)N(C)C)n3)cc2)CC1 [TP-0903]
Inhibition (AMPKa1, AMPKa2; labeling site Lys1, peptide VAVKILNR): 71.8% | Inhibition (AMPKa1, AMPKa2; labeling site Lys2, peptide DLKPENVLLDAHMNAK): 75.1% | inhibition at 0.1 µM (FER): 70.2% | Inhibition (IKKe, TBK1): 64.1% | Inhibition (JAK1 domain1): 87.3% | inhibition at 0.1 µM (LKB1): 25.7% | inhibition at 0.1 µM (MAP2K4; labeling site Activation Loop, peptide LCDFGISGQLVDSIAKTR): -0.165% | inhibition at 0.1 µM (MAP2K4; labeling site Lys1, peptide MVHKPSGQIMAVKR): 5.4% | inhibition at 0.1 µM (MAP2K4; labeling site Lys2, peptide DIKPSNILLDR): 3.5% | Inhibition (MAPKAPK2, MAPKAPK3): -42.8% | Inhibition (MASTL; labeling site ATP Loop, peptide GAFGKVYLGQK): 6.7% | Inhibition (MASTL; labeling site Lys1, peptide LYAVKVVK): 34.3% | inhibition at 0.1 µM (MST2): 7.3% | Inhibition (SMG1; peptide DTVTIHSVGGTITILPTKTKPK): 12.1% | Inhibition (SMG1; peptide SYPYLFKGLEDLHLDER): -6.4% | inhibition at 0.1 µM (SNRK): 1% | inhibition at 0.1 µM (TAK1): -11.5% | inhibition at 0.1 µM (TBK1): 83% | inhibition at 0.1 µM (TEC): 31.9% | Inhibition (Wnk1, Wnk2): -19.4%
